Literature values as cited in article PMC3320885 (PLoS ONE, 2012).

Key:
[1] = system: receptor tyrosine kinase PDGFR; set-up: method as in PMID 12543790, PMID 17114238
[2] = system: receptor tyrosine kinase Kit; set-up: method as in PMID 12543790, PMID 17114238

COc1cc(Nc2c(C#N)cnc3cc(OCCCN4CCN(C)CC4)c(OC)cc23)c(Cl)cc1Cl [bosutinib]
activity against PDGFR [1]: devoid of activity
effect of Y253F mutation on inhibition (BCR-Abl Y253F mutant): not affected
effect of Q252H mutation on inhibition (BCR-Abl Q252H mutant): not affected
effect of V299L mutation (BCR-Abl V299L mutant): confer resistance
activity against Kit [2]: devoid of activity
effect of T315I mutation (BCR-Abl T315I mutant): confer resistance
